Measurements from ChEMBL document CHEMBL1201862, “PubChem BioAssay data set” (2004).
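In this assay, cells in 96-well plates receive the compound at five concentrations for 48 hours. Endpoints are linearly interpolated between the surrounding concentrations. GI50 is the concentration that inhibits growth by half.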 Active and inactive are the calls of the source. Rule as the data show it: active = GI50 up to about 1.1 µM and inactive = higher.

Assays:
Experiment in all cases: growth of human tumour cells (NCI), 48 h
EKVX = test system: EKVX
TK-10 = test system: TK-10
UO-31 = test system: UO-31
SF-539 = test system: SF-539
HCC 2998 = test system: HCC 2998
SW-620 = test system: SW-620
KM12 = test system: KM12
NCI-H23 = test system: NCI-H23
RXF 393 = test system: RXF 393
SF-268 = test system: SF-268
IGROV-1 = test system: IGROV-1
OVCAR-4 = test system: OVCAR-4
HOP-62 = test system: HOP-62
SK-MEL-28 = test system: SK-MEL-28
HCT-116 = test system: HCT-116

Measured: GI50

Cc1noc(C)c1CCCOC1COc2ccccc2OCCOCCOc2ccccc2OC1
inactive: EKVX > 100 µM | TK-10 > 100 µM | UO-31 > 100 µM | SF-539 > 100 µM | HCC 2998 > 100 µM | SW-620 > 100 µM | KM12 > 100 µM | NCI-H23 > 100 µM | RXF 393 > 100 µM | SF-268 > 100 µM | IGROV-1 > 100 µM | OVCAR-4 > 100 µM | HOP-62 > 100 µM | SK-MEL-28 > 100 µM

O=C(O)CCC1CCc2cccc3occ1c23 (stereo not given)
inactive: EKVX > 100 µM | TK-10 > 100 µM | UO-31 > 100 µM | SF-539 > 100 µM | HCC 2998 > 100 µM | SW-620 > 100 µM | HCT-116 > 100 µM | KM12 > 100 µM | NCI-H23 > 100 µM | RXF 393 > 100 µM | SF-268 > 100 µM | IGROV-1 > 100 µM | OVCAR-4 > 100 µM | HOP-62 > 100 µM | SK-MEL-28 > 100 µM

Cc1cc2c(c(N)c1C)C(=O)c1ccccc1C2=O
inactive: TK-10 37.5 µM | UO-31 10.6 µM | SF-539 12.5 µM | HCC 2998 40.6 µM | SW-620 59.7 µM | HCT-116 19 µM | KM12 11.1 µM | RXF 393 29 µM | SF-268 25.5 µM | IGROV-1 12.6 µM | OVCAR-4 17.5 µM | HOP-62 13.9 µM

CC(=O)OC1[C@H]2c3cc4c(cc3CN3CCC(=C[C@@H]1O)C23)OCO4 (stereo not given in full)
inactive: EKVX 34 µM | TK-10 > 100 µM | UO-31 > 100 µM | SF-539 > 100 µM | HCC 2998 34.8 µM | SW-620 > 100 µM | KM12 44.4 µM | NCI-H23 > 100 µM | RXF 393 > 100 µM | SF-268 37.2 µM | IGROV-1 > 100 µM | HOP-62 > 100 µM | SK-MEL-28 23.4 µM

C[N+]1(C)C/C(=C\c2ccncc2)C(=O)/C(=C/c2ccncc2)C1
inactive: EKVX > 100 µM | TK-10 > 100 µM | UO-31 > 100 µM | SF-539 > 100 µM | HCC 2998 > 100 µM | SW-620 52.7 µM | HCT-116 38.5 µM | KM12 > 100 µM | RXF 393 > 100 µM | SF-268 25.2 µM | IGROV-1 > 100 µM | OVCAR-4 > 100 µM | HOP-62 > 100 µM | SK-MEL-28 > 100 µM

CC(C)c1ccc(/C=C(\NC(=O)c2ccccc2)c2nc3ccccc3[nH]2)cc1
inactive: EKVX 34.7 µM | TK-10 54.5 µM | UO-31 38.7 µM | SF-539 77.1 µM | SW-620 49.4 µM | HCT-116 31.6 µM | KM12 32.2 µM | NCI-H23 26.8 µM | RXF 393 36.5 µM | SF-268 41 µM | IGROV-1 73.8 µM | OVCAR-4 30.2 µM | SK-MEL-28 > 10 µM

O=C(O)CCC(=O)N1C/C(=C\c2ccccc2)C(=O)/C(=C/c2ccccc2)C1
inactive: EKVX 5.02 µM | TK-10 9.1 µM | UO-31 18.6 µM | SF-539 1.82 µM | HCC 2998 2.17 µM | SW-620 1.58 µM | HCT-116 1.75 µM | KM12 1.82 µM | NCI-H23 3.64 µM | RXF 393 3.67 µM | SF-268 2.48 µM | IGROV-1 3.45 µM | OVCAR-4 2.3 µM | HOP-62 16.8 µM | SK-MEL-28 1.97 µM

Nc1c(-c2nc3ccccc3s2)[n+]([O-])c2ccccc2[n+]1[O-]
inactive: EKVX 51.6 µM | TK-10 42.1 µM | UO-31 21.8 µM | SF-539 29.9 µM | HCC 2998 38.1 µM | SW-620 43.5 µM | HCT-116 24.3 µM | KM12 33.2 µM | NCI-H23 20 µM | SF-268 26.9 µM | IGROV-1 29.9 µM | OVCAR-4 42.1 µM | HOP-62 22.5 µM | SK-MEL-28 25.2 µM

COc1ccc(/C=C/C(=O)c2c(-c3ccccc3)nn(C)c(=O)c2N2CCCCC2)cc1
inactive: EKVX 11.7 µM | TK-10 37.1 µM | UO-31 13.9 µM | SF-539 17.5 µM | SW-620 24.5 µM | HCT-116 7.31 µM | NCI-H23 14 µM | RXF 393 12 µM | SF-268 19.7 µM | IGROV-1 25 µM | SK-MEL-28 14.9 µM

c1ccc(C2C3=C(Nc4ncnn42)c2ccccc2C3)cc1 (stereo not given)
inactive: EKVX 87.5 µM | TK-10 35 µM | UO-31 48.2 µM | SF-539 11.4 µM | HCC 2998 8.15 µM | SW-620 4.93 µM | HCT-116 12 µM | KM12 4.68 µM | NCI-H23 15 µM | RXF 393 21.1 µM | SF-268 20 µM | IGROV-1 86.1 µM | OVCAR-4 95.9 µM | HOP-62 31.7 µM
